From patent US20240366514A1, “PHARMACEUTICAL COMPOSITIONS OF OZANIMOD” (ZYDUS LIFESCIENCES LIMITED, priority 2021, published 2024)

Tested on: TNBS induced colitis model in rat
Assay: Pharmacodynamic (PD) study in TNBS induced colitis model in rat
Type: in vivo, Wistar rat male
Procedure: However, these differences in PK parameters were not observed in Pharmacodynamic (PD) study (Experiment 02) conducted in TNBS induced colitis model in rat. […] In this study, the efficacy parameters measured were colon weight to length ratio, colonic […] score (which includes sum of Adhesion score, Stricture score, Ulcer, Wall thickness) and Lymphocyte count. Colon weight to length ratio and macroscopic colon disease score were determined at the end of the study, whereas Lymphocyte count in circulation relative to vehicle treated TNBS challenged diseased animals (Vehicle control) was assessed 24 h after the last dose. […] The reasons for the similar efficacy response even at the differences in PK profile between both the formulations could be due to receptor saturation of S1P1 receptors overexpressed at the intestine at the dose of 1 mg/kg administered in both the treatment groups. […] The cardiac side effects such as Bradyarrhythmia and Atrioventricular Conduction Delays, which are associated with high Cmax from immediate-release formulation, get reduced or eliminated with the use of delayed-release formulation without affecting efficacy. Thus, the delayed-release formulation may also offer the skipping or reduce frequency of up-titration scheme.

Nc1ccc(O)c(C(=O)O)c1 [Mesalamine] was tested. Which “Lymphocyte count, % Inhibition (Mean ± SEM)” value (24 h after the last dose, relative to vehicle treated TNBS challenged animals) did it give?
The value was 13.39 ± 21.66%.

And the inhibition at 150 mg/kg (144 h, oral once a day for 6 days, IR 1 mg/kg, DR 0.89 mg/kg, Mesalamine 150 mg/kg, versus vehicle control, read-out: Colon Macroscopic Score, % Inhibition (Mean ± SEM))?
The inhibition at 150 mg/kg was 56.5 ± 5.02%.

What about the “Lymphocyte count (10^3/μL), Observation (Mean ± SEM)” value (circulating, 24 h after the last dose, IR 1 mg/kg, DR 0.89 mg/kg, Mesalamine 150 mg/kg oral for 6 days) of the same compound?
Its value is 7.6 ± 1.9 10^3/μL.

And the “Colon Weight to Length ratio (mg/cm), Observation (Mean ± SEM)” value (oral once a day for 6 consecutive days, IR 1 mg/kg, DR 0.89 mg/kg, Mesalamine 150 mg/kg, end of study)?
The value was 120.44 ± 4.22 mg/cm.

And the “Colon Macroscopic Score [Sum of scores of Adhesion score, Stricture score, Ulcer, Wall thickness], Observation (Mean ± SEM)” value (oral once a day for 6 days, IR 1 mg/kg, DR 0.89 mg/kg, Mesalamine 150 mg/kg, end of study)?
Its value is 2.5 ± 0.29.

And the “Colon Weight to Length ratio, % Inhibition (Mean ± SEM)” value (oral once a day for 6 days, IR 1 mg/kg, DR 0.89 mg/kg, Mesalamine 150 mg/kg, versus vehicle control)?
The value was 41.75 ± 2.04%.
